According to patent EP0384722A1, “Chemical compositions” (PITMAN-MOORE LIMITED, priority 1989, dated 1990):
Read-outs that look alike come from different tables or passages of the source.

What was measured:
[1] = Comparison of bioavailability of Compound A and Trimethoprim (TMP) administered by i/v injection, dogs; type: in vivo; conditions: i/v injection at 2 mg/kg; for half-life: both sexes, dog, read-out: Est.t1/2 (converted); for half-life / concentration at 0 h / concentration at 1 h / concentration at 3 h / concentration at 5 h / concentration at 7 h / concentration at 24 h / concentration at 30 h / concentration at 48 h: beagle, intravenous, serum; for concentration at 0 h: 0 hours post inj.; for concentration at 1 h: 1 hours post inj.; for concentration at 3 h: 3 hours post inj.; for concentration at 5 h: 5 hours post inj.; for concentration at 7 h: 7 hours post inj.; for concentration at 24 h: 24 hours post inj.; for concentration at 30 h: 30 hours post inj.; for concentration at 48 h: 48 hours post inj.
Description: One male beagle dog, 13.5 kg and one female beagle, 11.1kg, both aged about 18 months, received i/v injections (cephalic vein) of the test compounds at 2mg base/kg, using 15mg base /ml aqueous solutions.

[2] = Comparison of bioavailability of Compound A and Trimethoprim (TMP) administered by i/v injection, cats; type: in vivo; conditions: serum, i/v injection at 2 mg/kg; for Est.t1/2 / half-life: cats; for half-life / concentration at 0 h / concentration at 1 h / concentration at 3 h / concentration at 5 h / concentration at 7 h / concentration at 24 h: female, cat, intravenous; for half-life: read-out: Est.t1/2 (converted); for concentration at 0 h / concentration at 1 h / concentration at 3 h / concentration at 5 h / concentration at 7 h / concentration at 24 h: 2 mg/kg; for concentration at 0 h: 0 hours post inj.; for concentration at 1 h: 1 hours post inj.; for concentration at 3 h: 3 hours post inj.; for concentration at 5 h: 5 hours post inj.; for concentration at 7 h: 7 hours post inj.; for concentration at 24 h: 24 hours post inj.
Description: Two young adult female cats, bodyweight around 3 kg, were given i/v injections at 2 mg/kg of TMP or Compound A, using 3 mg/base ml aqueous solutions.

[3] = female, dog F, read-out: Serum conc. of Compound A
[4] = male, dog M, read-out: Serum conc. of Compound A
[5] = cat 3, read-out: Serum conc. of Compound A
[6] = cat 4, read-out: Serum conc. of Compound A
[7] = female, dog F, read-out: Serum conc. of TMP
[8] = male, dog M, read-out: Serum conc. of TMP
[9] = cat 1, read-out: Serum conc. of TMP
[10] = cat 2, read-out: Serum conc. of TMP

With `Cc1cc(Cc2cnc(N)nc2N)c2cccnc2c1N(C)C` [Compound A, 2,4-diamino-5-(8-dimethylamino-7-methyl-5-quinolylmethyl) pyrimidine] the half-life ([1]; dogs) was 15 h, the “half-life in comparison with TMP” value ([1]; dogs) was “greatly extended half-life in comparison with TMP” and the concentration at 0 h [1, 3] was 0 ng/mL. For the same molecule, the concentration at 1 h [1, 3] was 410 ng/mL, the concentration at 3 h [1, 3] was 340 ng/mL and the concentration at 5 h [1, 3] was 300 ng/mL. For the same molecule, the concentration at 7 h [1, 3] was 290 ng/mL, the concentration at 24 h [1, 3] was 124 ng/mL and the concentration at 30 h [1, 3] was 100 ng/mL. For the same molecule, the concentration at 48 h [1, 3] was 46 ng/mL, the concentration at 0 h [1, 4] was 0 ng/mL and the concentration at 1 h [1, 4] was 240 ng/mL. For the same molecule, the concentration at 3 h [1, 4] was 270 ng/mL, the concentration at 5 h [1, 4] was 260 ng/mL and the concentration at 7 h [1, 4] was 250 ng/mL. For the same molecule, the concentration at 24 h [1, 4] was 110 ng/mL, the concentration at 48 h [1, 4] was 39 ng/mL and the “Est.t1/2” value [2] was 2.4 h. For the same molecule, the half-life [2] was 2.4 h, the concentration at 0 h [2, 5] was 0 ng/mL and the concentration at 1 h [2, 5] was 320 ng/mL. The concentration at 3 h [2, 5] was 160 ng/mL, the concentration at 5 h [2, 5] was 100 ng/mL and the concentration at 7 h [2, 5] was 72 ng/mL. For the same molecule, the concentration at 24 h [2, 5] was 0 ng/mL, the concentration at 0 h [2, 6] was 0 ng/mL and the concentration at 1 h [2, 6] was 310 ng/mL. For the same molecule, the concentration at 3 h [2, 6] was 140 ng/mL, the concentration at 5 h [2, 6] was 86 ng/mL and the concentration at 24 h [2, 6] was 0 ng/mL.
For `COc1cc(Cc2cnc(N)nc2N)cc(OC)c1OC` [TMP, trimethoprim], the half-life ([1]; dogs) was 2.6 h, the concentration at 0 h [1, 7] was 0 ng/mL and the concentration at 1 h [1, 7] was 1200 ng/mL. The concentration at 3 h [1, 7] was 740 ng/mL, the concentration at 5 h [1, 7] was 310 ng/mL and the concentration at 7 h [1, 7] was 210 ng/mL. The concentration at 24 h [1, 7] was 0 ng/mL, the concentration at 30 h [1, 7] was 0 ng/mL and the concentration at 48 h [1, 7] was 0 ng/mL. For the same molecule, the concentration at 0 h [1, 8] was 0 ng/mL, the concentration at 1 h [1, 8] was 1100 ng/mL and the concentration at 3 h [1, 8] was 800 ng/mL. The concentration at 5 h [1, 8] was 400 ng/mL, the concentration at 7 h [1, 8] was 260 ng/mL and the concentration at 24 h [1, 8] was 0 ng/mL. For the same molecule, the concentration at 30 h [1, 8] was 0 ng/mL, the concentration at 48 h [1, 8] was 0 ng/mL and the “Est.t1/2” value [2] was 0.75 h. The half-life [2] was 0.75 h, the concentration at 0 h [2, 9] was 0 ng/mL and the concentration at 1 h [2, 9] was 460 ng/mL. For the same molecule, the concentration at 3 h [2, 9] was 60 ng/mL, the concentration at 5 h [2, 9] was 0 ng/mL and the concentration at 7 h [2, 9] was 0 ng/mL. For the same molecule, the concentration at 24 h [2, 9] was 0 ng/mL, the concentration at 0 h [2, 10] was 0 ng/mL and the concentration at 1 h [2, 10] was 440 ng/mL. The concentration at 3 h [2, 10] was 84 ng/mL, the concentration at 5 h [2, 10] was 0 ng/mL and the concentration at 7 h [2, 10] was 0 ng/mL. It also gave a concentration at 24 h [2, 10] of 0 ng/mL.
